# In US8962674B2 (Tokyo Institute of Technology, priority 2006, dated 2015):
row,Compound,melting point [°C]
1,"CSc1ccccc1/C=C/C(=O)CC(=O)/C=C/c1ccc(O)cc1 [CU484, (1E,6E)-1-(4-hydroxyphenyl)-7-[2-(methylthio)phenyl]hepta-1,6-diene-3,5-dione]",157 to 160
2,"O=C(/C=C/c1ccc(O)cc1)CC(=O)/C=C/c1cc(O)ccc1-c1cccc2ccccc12 [CU538, (1E,6E)-1-[5-hydroxy-2-(naphthalen-1-yl)phenyl]-7-(4-hydroxyphenyl)hepta-1,6-diene-3,5-dione]",215 to 221
3,"O=C(/C=C/c1ccc(O)cc1)CC(=O)/C=C/c1ccc2ccccc2c1-c1ccccc1 [CU503, (1E,6E)-1-(4-hydroxyphenyl)-7-(1-phenylnaphthalen-2-yl)hepta-1,6-diene-3,5-dione]",218 to 222
4,"COc1ccc(/C=C/C(=O)CC(=O)/C=C/c2cccc3cccnc23)cc1O [CU454, (1E,6E)-1-(3-hydroxy-4-methoxyphenyl)-7-(quinolin-8-yl)hepta-1,6-diene-3,5-dione]",80 to 85
5,"COc1ccc(/C=C/C(=O)CC(=O)/C=C/c2cc(Cl)cc(Cl)c2)cc1O [CU141, (1E,6E)-1-(3,5-dichlorophenyl)-7-(3-hydroxy-4-methoxyphenyl)hepta-1,6-diene-3,5-dione]",176 to 183
6,"O=C(/C=C/c1ccc(O)cc1)CC(=O)/C=C/c1cc(Cl)cc(Cl)c1 [CU201, (1E,6E)-1-(3,5-dichlorophenyl)-7-(4-hydroxyphenyl)hepta-1,6-diene-3,5-dione]",165 to 172
7,"Cn1cc(/C=C/C(=O)CC(=O)/C=C/c2ccc(O)cc2)c2ccccc21 [CU123, (1E,6E)-1-(4-hydroxyphenyl)-7-(1-methyl-1H-indol-3-yl)hepta-1,6-diene-3,5-dione]",185 to 190
8,"COc1ccc2cc(/C=C/C(=O)CC(=O)/C=C/c3ccc(O)cc3)ccc2c1 [CU166, (1E,6E)-1-(4-hydroxyphenyl)-7-(6-methoxynaphthalen-2-yl)hepta-1,6-diene-3,5-dione]",217 to 220
9,"O=C(/C=C/c1cn(Cc2ccccc2)c2ccccc12)CC(=O)/C=C/c1cn(Cc2ccccc2)c2ccccc12 [CU397, (1E,6E)-1,7-bis(1-benzyl-1H-indol-3-yl)hepta-1,6-diene-3,5-dione]",206 to 213
10,"O=C(/C=C/c1ccc(O)cc1)CC(=O)/C=C/c1ccccc1-c1cccc2ccccc12 [CU528, (1E,6E)-1-(4-hydroxyphenyl)-7-[2-(naphthalen-1-yl)phenyl]hepta-1,6-diene-3,5-dione]",95 to 101
11,"COc1cc(O)cc(/C=C/C(=O)CC(=O)/C=C/c2ccc(OC)c(O)c2)c1 [CU182, (1E,6E)-1-(3-hydroxy-4-methoxyphenyl)-7-(3-hydroxy-5-methoxyphenyl)hepta-1,6-diene-3,5-dione]",196 to 200
12,"COc1cc(/C=C/C(=O)CC(=O)/C=C/c2cccnc2)ccc1O [CU024, (1E,6E)-1-(4-hydroxy-3-methoxyphenyl)-7-(pyridin-3-yl)hepta-1,6-diene-3,5-dione]",176 to 179
13,"Cn1c(/C=C/C(=O)CC(=O)/C=C/c2cc3ccccc3n2C)cc2ccccc21 [CU409, (1E,6E)-1,7-bis(1-methyl-1H-indol-2-yl)hepta-1,6-diene-3,5-dione]",189 to 196
14,"O=C(/C=C/c1ccc(O)cc1)CC(=O)/C=C/c1ccc2c(c1)OCCO2 [CU232, (1E,6E)-1-(2,3-dihydrobenzo[1,4]dioxin-6-yl)-7-(4-hydroxyphenyl)hepta-1,6-diene-3,5-dione]",169 to 173
15,"COc1cc(/C=C/C(=O)CC(=O)/C=C/c2ccc(Cl)cc2)ccc1O [CU020, (1E,6E)-1-(4-chlorophenyl)-7-(4-hydroxy-3-methoxyphenyl)hepta-1,6-diene-3,5-dione]",59 to 61
16,"O=C(/C=C/c1ccc(O)cc1)CC(=O)/C=C/c1ncc[nH]1 [CU143, (1E,6E)-1-(4-hydroxyphenyl)-7-(1H-imidazol-2-yl)hepta-1,6-diene-3,5-dione]",175 to 181
17,"COc1cc(/C=C/C(=O)CC(=O)/C=C/c2cc(Cl)cc(Cl)c2O)ccc1O [CU021, (1E,6E)-1-(3,5-dichloro-2-hydroxyphenyl)-7-(4-hydroxy-3-methoxyphenyl)hepta-1,6-diene-3,5-dione]",185 to 188
18,"CS(=O)(=O)N1CCN(c2ccccc2/C=C/C(=O)CC(=O)/C=C/c2ccc(O)cc2)CC1 [CU500, (1E,6E)-1-(4-hydroxyphenyl)-7-{2-[4-(methylsulfonyl)piperazin-1-yl]phenyl}hepta-1,6-diene-3,5-dione]",126 to 131
19,"COc1ccc(/C=C/C(=O)CC(=O)/C=C/c2ccc3ccccc3c2)cc1O [CU165, (1E,6E)-1-(3-hydroxy-4-methoxyphenyl)-7-(naphthalen-2-yl)hepta-1,6-diene-3,5-dione]",193 to 194
20,"O=C(/C=C/c1ccc(O)cc1)CC(=O)/C=C/c1c[nH]cn1 [CU157, (1E,6E)-1-(4-hydroxyphenyl)-7-(1H-imidazol-4-yl)hepta-1,6-diene-3,5-dione]",168 to 172
21,"O=C(/C=C/c1ccc(O)cc1)CC(=O)/C=C/c1ccccc1C(F)(F)F [CU467, (1E,6E)-1-(4-hydroxyphenyl)-7-(2-trifluoromethylphenyl)hepta-1,6-diene-3,5-dione]",181 to 185
22,"O=C(/C=C/c1ccc(Oc2ccccc2)cc1)CC(=O)/C=C/c1ccc(Oc2ccccc2)cc1 [CU370, (1E,6E)-1,7-bis(4-phenoxyphenyl)hepta-1,6-diene-3,5-dione]",193 to 196

# The remaining lines, values ahead:
row,melting point [°C],Compound
1,240 to 245,"O=C(/C=C/c1ccc(O)cc1)CC(=O)/C=C/c1ccc(O)c([N+](=O)[O-])c1 [CU039, (1E,6E)-1-(4-hydroxy-3-nitrophenyl)-7-(4-hydroxyphenyl)hepta-1,6-diene-3,5-dione]"
2,65 to 70,"COc1ccc(/C=C/C(=O)CC(=O)/C=C/c2ccc(N(C)C)c(OC)c2)cc1O [CU036, (1E,6E)-1-(4-dimethylamino-3-methoxyphenyl)-7-(3-hydroxy-4-methoxyphenyl)hepta-1,6-diene-3,5-dione]"
3,210 to 218,"CN(C)C(=O)c1ccccc1/C=C/C(=O)CC(=O)/C=C/c1ccc(O)cc1 [CU479, (1E,6E)-1-[2-(dimethylaminocarbonyl)phenyl]-7-(4-hydroxyphenyl)hepta-1,6-diene-3,5-dione]"
4,89 to 92,"CCN(CC)c1ccc(/C=C/C(=O)CC(=O)/C=C/c2ccc(O)c(OC)c2)c(O)c1 [CU277, (1E,6E)-1-(4-diethylamino-2-hydroxyphenyl)-7-(4-hydroxy-3-methoxyphenyl)hepta-1,6-diene-3,5-dione]"
5,140 to 146,"COc1ccc(/C=C/C(=O)CC(=O)/C=C/c2cc(Cl)ccc2Cl)cc1O [CU185, (1E,6E)-1-(2,5-dichlorophenyl)-7-(3-hydroxy-4-methoxyphenyl)hepta-1,6-diene-3,5-dione]"
6,113 to 120,"COc1cc(/C=C/C(=O)CC(=O)/C=C/c2ccc(N(C)C)cc2Cl)ccc1O [CU196, (1E,6E)-1-(2-chloro-4-dimethylaminophenyl)-7-(4-hydroxy-3-methoxyphenyl)hepta-1,6-diene-3,5-dione]"
7,86 to 90,"CN(C)S(=O)(=O)c1ccccc1/C=C/C(=O)CC(=O)/C=C/c1ccc(O)cc1 [CU480, (1E,6E)-1-[2-(dimethylaminosulfonyl)phenyl]-7-(4-hydroxyphenyl)hepta-1,6-diene-3,5-dione]"
8,60 to 65,"CCN(CC)c1ccc(/C=C/C(=O)CC(=O)/C=C/c2ccc(O)c(OC)c2)c(OCc2ccccc2)c1 [CU437, (1E,6E)-1-(2-benzyloxy-4-diethylaminophenyl)-7-(4-hydroxy-3-methoxyphenyl)hepta-1,6-diene-3,5-dione]"
9,245 to 250,CN(C)c1ccc(/C=C/C(=O)CC(=O)/C=C/c2ccc(N(C)C)cc2[N+](=O)[O-])c([N+](=O)[O-])c1
10,105 to 110,"COc1cc(O)ccc1/C=C/C(=O)CC(=O)/C=C/c1ccc(O)cc1 [CU083, (1E,6E)-1-(4-hydroxyphenyl)-7-(4-hydroxy-2-methoxyphenyl)hepta-1,6-diene-3,5-dione]"
11,153 to 156,"O=C(/C=C/c1ccc(O)cc1)CC(=O)/C=C/c1cc(F)cc(F)c1 [CU468, (1E,6E)-1-(3,5-difluorophenyl)-7-(4-hydroxyphenyl)hepta-1,6-diene-3,5-dione]"
12,173 to 176,"O=C(/C=C/c1ccc(O)cc1)CC(=O)/C=C/c1cccc(O)c1O [CU264, (1E,6E)-1-(2,3-dihydroxyphenyl)-7-(4-hydroxyphenyl)hepta-1,6-diene-3,5-dione]"
13,68 to 72,"CN(C)c1ccccc1/C=C/C(=O)CC(=O)/C=C/c1ccc(O)cc1 [CU495, (1E,6E)-1-(2-dimethylaminophenyl)-7-(4-hydroxyphenyl)hepta-1,6-diene-3,5-dione]"
14,223 to 232,"O=C(/C=C/c1ccc(O)cc1)CC(=O)/C=C/c1ccc(Br)cc1F [CU471, (1E,6E)-1-(4-bromo-2-fluorophenyl)-7-(4-hydroxyphenyl)hepta-1,6-diene-3,5-dione]"
15,137 to 139,"COc1ccc(/C=C/C(=O)CC(=O)/C=C/c2ccc(O)cc2)c(O)c1 [CU251, (1E,6E)-1-(2-hydroxy-4-methoxyphenyl)-7-(4-hydroxyphenyl)hepta-1,6-diene-3,5-dione]"
16,203 to 208,"COc1cc(/C=C/C(=O)CC(=O)/C=C/c2ccc(O)cc2OC)ccc1O [CU085, (1E,6E)-1-(4-hydroxy-2-methoxyphenyl)-7-(4-hydroxy-3-methoxyphenyl)hepta-1,6-diene-3,5-dione]"
17,146 to 150,"COc1ccc(/C=C/C(=O)CC(=O)/C=C/c2ccc(N(C)C)c3ccccc23)cc1O [CU168, (1E,6E)-1-(4-dimethylaminonaphthalen-1-yl)-7-(3-hydroxy-4-methoxyphenyl)hepta-1,6-diene-3,5-dione]"
18,102 to 108,"COc1ccc(/C=C/C(=O)CC(=O)/C=C/c2ccccc2OC)cc1O [CU068, (1E,6E)-1-(3-hydroxy-4-methoxyphenyl)-7-(2-methoxyphenyl)hepta-1,6-diene-3,5-dione]"
19,221 to 224,"CS(=O)(=O)c1ccc(/C=C/C(=O)CC(=O)/C=C/c2ccc(O)cc2)cc1 [CU203, (1E,6E)-1-(4-hydroxyphenyl)-7-(4-methanesulfonylphenyl)hepta-1,6-diene-3,5-dione]"
